Reference: PubChem BioAssay AID1259408 (Genetic Toxicology Data Bank (GENE-TOX), 2018)
Activity calls are given as the source filed them. No rule for the calls is given here.

Tested on: GENE-TOX genotoxicity assays, various organisms and cells
Test: GENE-TOX mutagenicity studies
Details: for call: Assay Type: In vivo carcinogenicity studies, Assay Code: CCG+
[1] = Species/Cell Type: Nonhuman, Evaluation Type: Evaluation A (Pre-1980)
[2] = Species/Cell Type: Salmonella typhimurium (one or more of the five standard strains: TA98, TA100, TA1535, TA1537, and TA1538), Assay Type: Histidine reverse gene mutation, Ames assay, Assay Code: SAL+*, Activation: With metabolic activation, Evaluation Type: Evaluation A (Pre-1980)
[3] = Species/Cell Type: Saccharomyces cerevisiae, Assay Type: Reverse gene mutation, Assay Code: YERT, Evaluation Type: Evaluation A (Pre-1980)

CC(=O)Nc1ccc2c(c1)Cc1ccccc1-2
mutagenic call (Species/Cell Type: Chinese hamster lung (V79) cells, Assay Type: Forward gene mutation at the HPRT or ouabain locus, Assay Code: V79-, Evaluation Type: Evaluation A (Pre-1980)): inactive; negative | mutagenic call (Species/Cell Type: Chinese hamster ovary (CHO) cells, Assay Type: Forward gene mutation at the HPRT locus, Assay Code: CHO+*, Activation: With metabolic activation, Evaluation Type: Evaluation B (Post-1980)): active; positive | mutagenic call (Species/Cell Type: Drosophila melanogaster, Assay Type: Sex-linked recessive lethal gene mutation, Assay Code: SRLT, Evaluation Type: Evaluation A (Pre-1980)): no conclusion | mutagenic call (Species/Cell Type: Escherichia coli polA (W3110 vs P3478), Assay Type: Rec-assay, DNA effects (bacterial DNA repair), Assay Code: RE2+, Evaluation Type: Evaluation A (Pre-1980)): active; positive | mutagenic call (Species/Cell Type: Escherichia coli polA (W3119 vs P3478), Assay Type: Rec-assay, DNA effects (bacterial DNA repair), Assay Code: RE1-, Evaluation Type: Evaluation A (Pre-1980)): inactive; negative | mutagenic call (Species/Cell Type: Fischer rat embryo (RLV/1706) cells, Assay Type: Cell transformation, viral enhanced, Assay Code: CTRT, Evaluation Type: Evaluation A (Pre-1980)): no conclusion | mutagenic call (Species/Cell Type: Human diploid fibroblasts, Assay Type: Unscheduled DNA synthesis (UDS) in vitro, DNA effects, Assay Code: UDHT, Evaluation Type: Evaluation A (Pre-1980)): no conclusion | mutagenic call (Species/Cell Type: Human lymphocytes, Assay Type: Sister-chromatid exchange (SCE) in vitro, Assay Code: SCL-, Evaluation Type: Evaluation A (Pre-1980)): inactive; negative | mutagenic call (Species/Cell Type: Human, Assay Type: Sister-chromatid exchange (SCE) in vitro, Assay Code: SC1+D, Dose Response: With dose response, Evaluation Type: Evaluation B (Post-1980)): active; positive | mutagenic call (Species/Cell Type: Human, Assay Type: Sister-chromatid exchange (SCE) in vitro, Assay Code: SC1-, Evaluation Type: Evaluation A (Pre-1980)): inactive; negative | mutagenic call (Species/Cell Type: Mammalian polychromatic erythrocytes, Assay Type: Micronucleus test, chromosome aberrations, Assay Code: MNT+, Evaluation Type: Evaluation A (Pre-1980)): active; positive | mutagenic call (Species/Cell Type: Mouse (BALB/c-3T3) cells, Assay Type: Cell transformation, Assay Code: CTB+D, Dose Response: With dose response, Evaluation Type: Evaluation A (Pre-1980)): active; positive | mutagenic call (Species/Cell Type: Mouse lymphoma (L5178Y) cells, Assay Type: Forward gene mutation at the thymidine kinase (TK) locus, chromosome aberrations, Assay Code: L51+*, Activation: With metabolic activation, Evaluation Type: Evaluation A (Pre-1980)): active; positive | mutagenic call (Species/Cell Type: Mouse, Sex: Male, Assay Type: Sperm morphology, Assay Code: SPI-, Evaluation Type: Evaluation A (Pre-1980)): inactive; negative | call [1]: active; positive | mutagenic call (Species/Cell Type: Nonhuman, Assay Type: Sister-chromatid exchange (SCE) in vitro, Assay Code: SC2+, Evaluation Type: Evaluation A (Pre-1980)): active; positive | mutagenic call (Species/Cell Type: Nonhuman, Assay Type: Sister-chromatid exchange (SCE) in vivo, Assay Code: SC3+D, Dose Response: With dose response, Evaluation Type: Evaluation B (Post-1980)): active; positive | mutagenic call (Species/Cell Type: Nonhuman, Assay Type: Sister-chromatid exchange (SCE) in vivo, Assay Code: SC3T, Evaluation Type: Evaluation A (Pre-1980)): no conclusion | mutagenic call (Species/Cell Type: Rat primary hepatocytes, Assay Type: Unscheduled DNA synthesis (UDS) in vitro, DNA effects, Assay Code: UDP+, Evaluation Type: Evaluation A (Pre-1980)): active; positive | mutagenic call (Species/Cell Type: Saccharomyces cerevisiae, Assay Type: Mitotic recombination or gene conversion, Assay Code: YEC-*, Activation: With metabolic activation, Evaluation Type: Evaluation A (Pre-1980)): inactive; negative | mutagenic call (Species/Cell Type: Saccharomyces cerevisiae, Assay Type: Mitotic recombination or gene conversion, Assay Code: YEH-*, Activation: With metabolic activation, Evaluation Type: Evaluation A (Pre-1980)): inactive; negative | mutagenic call [2]: active; positive | mutagenic call (Species/Cell Type: Salmonella typhimurium, Assay Type: Forward and reverse gene mutation, body fluid assay, Assay Code: BFU+, Evaluation Type: Evaluation A (Pre-1980)): active; positive | mutagenic call (Species/Cell Type: Salmonella typhimurium, Assay Type: Forward and reverse gene mutation, host-mediated assay, Assay Code: HMA+, Evaluation Type: Evaluation A (Pre-1980)): active; positive | mutagenic call (Species/Cell Type: Syrian hamster embryo (SA7/SHE) cells, Assay Type: Cell transformation, viral enhanced, Assay Code: CT7-, Evaluation Type: Evaluation A (Pre-1980)): inactive; negative | mutagenic call (Species/Cell Type: Syrian hamster embryo (SHE) cells, Assay Type: Cell transformation, clonal assay, Assay Code: CTC+D*, Activation: With metabolic activation, Dose Response: With dose response, Evaluation Type: Evaluation A (Pre-1980)): active; positive

CN=C(N)NC(=O)Nc1c(C)cccc1C
mutagenic call (Species/Cell Type: Mammalian polychromatic erythrocytes, Assay Type: Micronucleus test, chromosome aberrations, Assay Code: MNTT, Evaluation Type: Evaluation B (Post-1980)): no conclusion

ClC(Cl)(Cl)c1ccccc1
mutagenic call (Species/Cell Type: Bacillus subtilis (H17 vs M45), Assay Type: Rec-assay, spot test, DNA effects (bacterial DNA repair), Assay Code: REW+, Evaluation Type: Evaluation A (Pre-1980)): active; positive | call [1]: active; positive

COC(=O)Cc1ccc(OC)c(CSC(=N)N)c1
mutagenic call [3]: no conclusion

CCOc1ccc(CC(=O)OC)cc1CSC(=N)N
mutagenic call [3]: no conclusion

NC(Cc1cccc(F)c1)C(=O)O (stereo unspecified)
mutagenic call (Species/Cell Type: Neurospora crassa, Assay Type: Aneuploidy, chromosome aberrations, Assay Code: NEN-, Evaluation Type: Evaluation A (Pre-1980)): inactive; negative

COc1cc(-c2ccc(N)c(OC)c2)ccc1N
mutagenic call (Species/Cell Type: Escherichia coli polA (W3119 vs P3478), Assay Type: Rec-assay, DNA effects (bacterial DNA repair), Assay Code: RE1T, Evaluation Type: Evaluation A (Pre-1980)): no conclusion | mutagenic call (Species/Cell Type: Human diploid fibroblasts, Assay Type: Unscheduled DNA synthesis (UDS) in vitro, DNA effects, Assay Code: UDH+*, Activation: With metabolic activation, Evaluation Type: Evaluation A (Pre-1980)): active; positive | call [1]: active; positive | mutagenic call (Species/Cell Type: Nonhuman, Assay Type: Sister-chromatid exchange (SCE) in vitro, Assay Code: SC2+D, Dose Response: With dose response, Evaluation Type: Evaluation B (Post-1980)): active; positive | mutagenic call [2]: active; positive

O=C1c2cccc(O)c2C(=O)c2c(NCCNCCO)ccc(NCCNCCO)c21
mutagenic call (Species/Cell Type: Nonhuman, Assay Type: Sister-chromatid exchange (SCE) in vitro, Assay Code: SC2+, Evaluation Type: Evaluation B (Post-1980)): active; positive

CC(=O)OC[C@]12C[C@H](OC(=O)CC(C)C)C(C)=C[C@H]1O[C@@H]1[C@H](O)[C@@H](OC(C)=O)[C@@]2(C)[C@]12CO2
mutagenic call (Species/Cell Type: Bacillus subtilis (H17 vs M45), Assay Type: Rec-assay, spot test, DNA effects (bacterial DNA repair), Assay Code: REW-, Evaluation Type: Evaluation A (Pre-1980)): inactive; negative | mutagenic call (Species/Cell Type: Saccharomyces cerevisiae, Assay Type: Mitotic recombination or gene conversion, Assay Code: YEH-, Evaluation Type: Evaluation A (Pre-1980)): inactive; negative | mutagenic call (Species/Cell Type: Salmonella typhimurium (one or more of the five standard strains: TA98, TA100, TA1535, TA1537, and TA1538), Assay Type: Histidine reverse gene mutation, Ames assay, Assay Code: SALT, Evaluation Type: Evaluation A (Pre-1980)): no conclusion
